Test results published in patent US8940898B2, “Piperidinyl alkyne orexin receptor antagonists” (Merck Sharp & Dohme Corp., priority 2011, dated 2015).

Key:
hOX1 (orexin-1 receptor) = target: T1, hOX1 (orexin-1 receptor) (Homo sapiens, UniProt O43613); assay: radioligand binding assay, OX1 receptor (hOX1 Bind hKi); settings: membranes from CHO cells expressing the OX1 receptor
T1 construct: expressed in transfected cells; host or cells: CHO cells (membranes)
T1 sequence (O43613 1-425): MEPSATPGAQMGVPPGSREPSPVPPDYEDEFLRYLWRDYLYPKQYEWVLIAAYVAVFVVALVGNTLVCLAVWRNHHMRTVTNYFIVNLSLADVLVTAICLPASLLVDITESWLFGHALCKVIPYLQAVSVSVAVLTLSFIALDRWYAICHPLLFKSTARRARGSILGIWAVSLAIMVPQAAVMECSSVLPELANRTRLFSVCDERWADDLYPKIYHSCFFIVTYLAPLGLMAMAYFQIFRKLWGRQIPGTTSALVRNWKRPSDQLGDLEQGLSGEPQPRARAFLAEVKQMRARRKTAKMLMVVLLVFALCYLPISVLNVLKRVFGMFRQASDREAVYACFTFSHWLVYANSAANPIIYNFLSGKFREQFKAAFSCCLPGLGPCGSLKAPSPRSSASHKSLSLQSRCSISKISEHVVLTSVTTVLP

human orexin-2 receptor = target: T2, human orexin-2 receptor (Homo sapiens, UniProt O43614); assay: radioligand binding assay, OX2 receptor (hOX2 Bind hKi); settings: membranes from CHO cells expressing the OX2 receptor
T2 construct: expressed in transfected cells; host or cells: CHO cells (membranes)
T2 sequence (O43614 1-444): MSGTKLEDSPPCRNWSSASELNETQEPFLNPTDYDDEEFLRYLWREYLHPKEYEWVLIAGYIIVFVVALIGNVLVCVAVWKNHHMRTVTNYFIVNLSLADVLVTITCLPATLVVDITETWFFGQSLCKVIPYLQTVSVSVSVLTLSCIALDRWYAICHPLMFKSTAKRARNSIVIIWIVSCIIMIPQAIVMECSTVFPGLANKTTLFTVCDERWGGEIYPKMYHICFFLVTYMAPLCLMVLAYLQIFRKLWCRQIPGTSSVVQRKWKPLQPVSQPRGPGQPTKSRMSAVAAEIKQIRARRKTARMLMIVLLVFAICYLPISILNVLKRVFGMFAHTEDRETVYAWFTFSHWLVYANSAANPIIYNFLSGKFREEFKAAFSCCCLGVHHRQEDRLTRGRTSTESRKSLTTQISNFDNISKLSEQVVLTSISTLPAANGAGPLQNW
Procedure: The utility of the compounds in accordance with the present invention as orexin receptor OX1R and/or OX2R antagonists may be readily determined without undue experimentation by methodology well known in the art, including the “FLIPR Ca^2+ Flux Assay” (Okumura et al., Biochem. Biophys. Res. Comm. 280:976-981, 2001). In a typical experiment the OX1 and OX2 receptor antagonistic activity of the compounds of the present invention was determined in accordance with the following experimental method. For intracellular calcium measurements, Chinese hamster ovary (CHO) cells expressing the rat orexin-1 receptor or the human orexin-2 receptor, are grown in Iscove's modified DMEM containing 2 mM L-glutamine, […], 1% hypoxanthine-thymidine supplement, 100 U/ml penicillin, 100 μg/ml streptomycin and 10% heat-inactivated fetal calf serum (FCS). The cells are seeded at 20,000 cells/well into Becton-Dickinson black 384-well clear bottom sterile plates coated with poly-D-lysine. All reagents were from GIBCO-Invitrogen Corp. The seeded plates are incubated overnight at 37° C. and 5% CO2. Ala-6,12 human orexin-A as the agonist is prepared as a 1 mM stock solution in 1% bovine serum albumin (BSA) and diluted in assay buffer (HBSS containing 20 mM HEPES, 0.1% BSA and 2.5 mM probenecid, pH7.4) for use in the assay at a final concentration of 70 pM. Test compounds are prepared as 10 mM stock solution in DMSO, then diluted in 384-well plates, first in DMSO, then assay buffer. On the day of the assay, cells are washed 3 times with 100 μl assay buffer and then incubated for 60 min (37° C., 5% CO2) in 60 μl assay buffer containing 1 μM Fluo-4AM ester, 0.02% pluronic acid, and 1% BSA. The dye loading solution is then aspirated and cells are washed 3 times with 100 μl assay buffer. 30 μl of that same buffer is left in each well. Within the Fluorescent Imaging Plate Reader (FLIPR, Molecular Devices), test compounds are added to the plate in a volume of 25 μl, incubated for 5 min and finally 25 μl of agonist is added. Fluorescence is measured for each well at 1 second intervals for 5 minutes and the height of each fluorescence peak is compared to the height of the fluorescence peak induced by […] Ala-6,12 orexin-A with buffer in place of antagonist. For each antagonist, IC50 value (the concentration of compound needed to inhibit 50% of the agonist response) is determined. Alternatively, compound potency can be assessed by a radioligand binding assay (described in Bergman et. al. Bioorg. Med. Chem. Lett. 2008, 18, 1425-1430) in which the inhibition constant (Ki) is determined in membranes prepared from CHO cells expressing either the OX1 or OX2 receptor. The intrinsic orexin receptor antagonist activity of a compound which may be used in the present invention may be determined by these assays. The following tables show representative data for the compounds of the Examples as orexin receptor antagonists as determined by the foregoing assays wherein the hOX2 Ki is a measure of the ability of the test compound to inhibit the action of the human orexin-2 receptor and the hOX1R is a measure of the ability of the test compound to inhibit the action of the rat orexin-1 receptor.

Ki (hOX1 (orexin-1 receptor)) [nM]	Ki (human orexin-2 receptor) [nM]	Compound
> 1600	> 754	Cc1nc(C(=O)N2CCCCC2C#Cc2ccc3ccccc3c2)c(-c2ccccc2)s1 (centres unmarked) [Example 21, 1-[(2-methyl-5-phenyl-1,3-thiazol-4-yl)carbonyl]-2-(naphthalen-2-ylethynyl)piperidine]
> 1600	> 6120	Cc1nc(C(=O)N2CCCCC2C#Cc2cnc3ccccc3c2)c(-c2ccccc2)s1 (centres unmarked) [Example 26, 3-({1-[(2-methyl-5-phenyl-1,3-thiazol-4-yl)carbonyl]piperidin-2-yl}ethynyl)quinoline]
257	> 1170	Cc1nc(C(=O)N2CCCCC2C#Cc2ccccc2)c(-c2ccccc2)s1 (centres unmarked) [Example 20, (2-Methyl-5-phenyl-1,3-thiazol-4-yl) [2-(phenylethynyl)piperidin-1-yl]methanone]
> 2540	1000	Cc1ccc(-n2nccn2)c(C(=O)N2CCCCC2C#Cc2ccc(F)cn2)c1 (centres unmarked) [Example 15, 5-fluoro-2-[(1-{[5-methyl-2-(2H-1,2,3-triazol-2-yl)phenyl]carbonyl}piperidin-2-yl)ethynyl]pyridine]
> 476	> 4460	Cc1ccc(-n2nccn2)c(C(=O)N2CCCCC2C#Cc2cnc3ccccc3c2)c1 (centres unmarked) [Example 18, 3-[(1-{[5-methyl-2-(2H-1,2,3-triazol-2-yl)phenyl]carbonyl}piperidin-2-yl)ethynyl]quinoline]
211	130	C[C@@H]1CC[C@@H](C#Cc2ccc(CO)cn2)CN1C(=O)c1ccccc1-n1nccn1 [Example 8, (6-{[(3S,6R)-6-methyl-1-{[2-(2H-1,2,3-triazol-2-yl)phenyl]carbonyl}piperidin-3-yl]ethynyl}pyridin-3-yl)methanol]
332	> 4460	Cc1ccc(-n2nccn2)c(C(=O)N2CCCCC2C#Cc2ccc3ccccc3n2)c1 (centres unmarked) [Example 17, 2-[(1-{[5-methyl-2-(2H-1,2,3-triazol-2-yl)phenyl]carbonyl)piperidin-2-yl)ethynyl]quinoline]
233	> 754	Cc1nc(C(=O)N2CCCCC2C#Cc2ccc3ccccc3n2)c(-c2ccccc2)s1 (centres unmarked) [Example 24, 2-({1-[(2-methyl-5-phenyl-1,3-thiazol-4-yl)carbonyl]piperidin-2-yl}ethynyl)quinoline]
186	721	Cc1nc(C(=O)N2CCCCC2C#Cc2ccc(F)cc2)c(-c2ccccc2)s1 (centres unmarked) [Example 23, 2-[(4-fluorophenyl)ethynyl]-1-[(2-methyl-5-phenyl-1,3-thiazol-4-yl)carbonyl]piperidine]
357	441	Cc1ccc(-n2nccn2)c(C(=O)N2CCCCC2C#Cc2ccccc2)c1 (centres unmarked) [Example 14, [5-Methyl-2-(2H-1,2,3-triazol-2-yl)phenyl][2-(phenylethynyl)piperidin-1-yl]methanone]
> 364	> 100	Cc1nc(C(=O)N2CCCCC2C#Cc2cc3ccccc3cn2)c(-c2ccccc2)s1 (centres unmarked) [Example 25, 3-({1-[(2-methyl-5-phenyl-1,3-thiazol-4-yl)carbonyl]piperidin-2-yl}ethynyl)isoquinoline]
> 2710	> 2300	Cc1nc(C(=O)N2CCCCC2C#Cc2ccc(F)cn2)c(-c2ccccc2)s1 (centres unmarked) [Example 22, 5-fluoro-2-({1-[(2-methyl-5-phenyl-1,3-thiazol-4-yl)carbonyl]piperidin-2-yl}ethynyl)pyridine]
248	160	Cc1ccc(-n2nccn2)c(C(=O)N2CCCCC2C#Cc2ccc(F)cc2)c1 (centres unmarked) [Example 16, 2-[(4-fluorophenyl)ethynyl]-1-{[5-methyl-2-(2H-1,2,3-triazol-2-yl)phenyl]carbonyl}piperidine]

More lines, now with the values behind:

Compound	Ki (hOX1 (orexin-1 receptor)) [nM]	Ki (human orexin-2 receptor) [nM]
C[C@@H]1CC[C@@H](C#Cc2ccc(CO)nc2)CN1C(=O)c1ccccc1-n1nccn1 [Example 7, (5-{[(3S,6R)-6-methyl-1-{[2-(2H-1,2,3-triazol-2-yl)phenyl]carbonyl}piperidin-3-yl]ethynyl}pyridin-2-yl)methanol]	339	~150
C[C@@H]1CC[C@@H](C#Cc2cnccc2O)CN1C(=O)c1ccccc1-n1nccn1 [Example 5, 3-{[(3S,6R)-6-methyl-1-{[2-(2H-1,2,3-triazol-2-yl)phenyl]carbonyl}piperidin-3-yl]ethynyl}pyridin-4-ol]	866	7.5
C[C@@H]1CC[C@@H](C#Cc2cccnc2O)CN1C(=O)c1ccccc1-n1nccn1 [Example 4, 3-{[(3S,6R)-6-methyl-1-{[2-(2H-1,2,3-triazol-2-yl)phenyl]carbonyl}piperidin-3-yl]ethynyl}pyridin-2-ol]	24	24
C[C@@H]1CC[C@@H](C#Cc2ccnc(CO)c2)CN1C(=O)c1ccccc1-n1nccn1 [Example 12, (4-{[(3S,6R)-6-methyl-1-{[2-(2H-1,2,3-triazol-2-yl)phenyl]carbonyl}piperidin-3-yl]ethynyl}pyridin-2-yl)methanol]	75	25
C[C@@H]1CC[C@@H](C#Cc2cccc(CO)n2)CN1C(=O)c1ccccc1-n1nccn1 [Example 9, (6-{[(3S,6R)-6-methyl-1-{[2-(2H-1,2,3-triazol-2-yl)phenyl]carbonyl}piperidin-3-yl]ethynyl}pyridin-2-yl)methanol]	18	5.6
C[C@@H]1CC[C@@H](C#Cc2cccnc2)CN1C(=O)c1ccccc1-n1nccn1 [Example 3, 3-{[(3S,6R)-6-methyl-1-{[2-(2H-1,2,3-triazol-2-yl)phenyl]carbonyl}piperidin-3-yl]ethynyl}pyridine]	26	7
C[C@@H]1CCC(C#Cc2ccccn2)CN1C(=O)c1ccccc1-n1nccn1 (stereo in doubt) [Example 1, [(2R,5R)-2-Methyl-5-(pyridin-2-ylethynyl)piperidin-1-yl][2-(2H-1,2,3-triazol-2-yl)phenyl]methanone]	27	11
C[C@@H]1CC[C@@H](C#Cc2cc(CO)ccn2)CN1C(=O)c1ccccc1-n1nccn1 [Example 10, (2-{[(3S,6R)-6-methyl-1-{[2-(2H-1,2,3-triazol-2-yl)phenyl]carbonyl}piperidin-3-yl]ethynyl}pyridin-4-yl)methanol]	76	42
C[C@@H]1CC[C@@H](C#Cc2ccncc2)CN1C(=O)c1ccccc1-n1nccn1 [Example 2, 4-{[(3S,6R)-6-methyl-1-{[2-(2H-1,2,3-triazol-2-yl)phenyl]carbonyl}piperidin-3-yl]ethynyl}pyridine]	107	41
